Measured values as given in PMC12552937, “Kinetic mechanisms of electron bifurcation with electron transfer flavoprotein, NADH, butyryl-CoA dehydrogenase, and ferredoxin reveal a semiquinone cycle” (The Journal of Biological Chemistry, 2025).

Key:
[1] = biological target: T1, Bcd (butyryl-CoA dehydrogenase) (Acidaminococcus fermentans, UniProt D2RL84); experiment: static titration, double-beam UV-visible difference absorbance at […] nm; type: binding
T1 construct: gene Acfer_1477; recombinant from E. coli, pET-11a, no tag told; homotetramer with one delta-FAD per subunit
T1 sequence (D2RL84 1-383): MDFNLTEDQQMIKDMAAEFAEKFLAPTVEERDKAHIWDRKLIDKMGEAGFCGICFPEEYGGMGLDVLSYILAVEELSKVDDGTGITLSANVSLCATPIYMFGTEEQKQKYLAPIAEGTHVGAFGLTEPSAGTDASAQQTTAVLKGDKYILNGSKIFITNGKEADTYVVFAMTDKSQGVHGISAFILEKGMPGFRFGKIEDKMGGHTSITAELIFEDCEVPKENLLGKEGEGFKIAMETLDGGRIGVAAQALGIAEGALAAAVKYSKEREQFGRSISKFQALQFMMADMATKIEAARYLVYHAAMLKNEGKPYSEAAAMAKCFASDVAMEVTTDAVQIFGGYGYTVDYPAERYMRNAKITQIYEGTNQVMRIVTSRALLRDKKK

[2] = biological target: T2, EtfAB (electron transfer flavoprotein) (Acidaminococcus fermentans, UniProt D2RIQ2); experiment: anaerobic stopped-flow, beta-FAD reduction and charge-transfer complex at […] nm; type: biochemical; conditions: 40 μM EtfAB + 40 μM NADH, 50 mM potassium phosphate pH 7.0, 4 °C; beta-FAD site
T2 construct: gene Acfer_0555; recombinant from E. coli, pET-11a, no tag told; heterodimer with alpha-FAD (EtfA) and beta-FAD (EtfB); with Electron transfer flavoprotein subunit alpha
T2 sequence (D2RIQ2 1-263): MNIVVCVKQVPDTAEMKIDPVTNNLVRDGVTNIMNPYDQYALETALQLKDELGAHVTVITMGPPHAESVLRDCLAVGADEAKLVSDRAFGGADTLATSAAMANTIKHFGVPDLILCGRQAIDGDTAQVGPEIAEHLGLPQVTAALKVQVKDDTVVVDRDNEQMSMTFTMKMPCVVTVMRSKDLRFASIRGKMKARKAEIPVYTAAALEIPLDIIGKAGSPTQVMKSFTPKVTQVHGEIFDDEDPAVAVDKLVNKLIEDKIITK
T2 sequence (D2RIQ3 1-340 partner): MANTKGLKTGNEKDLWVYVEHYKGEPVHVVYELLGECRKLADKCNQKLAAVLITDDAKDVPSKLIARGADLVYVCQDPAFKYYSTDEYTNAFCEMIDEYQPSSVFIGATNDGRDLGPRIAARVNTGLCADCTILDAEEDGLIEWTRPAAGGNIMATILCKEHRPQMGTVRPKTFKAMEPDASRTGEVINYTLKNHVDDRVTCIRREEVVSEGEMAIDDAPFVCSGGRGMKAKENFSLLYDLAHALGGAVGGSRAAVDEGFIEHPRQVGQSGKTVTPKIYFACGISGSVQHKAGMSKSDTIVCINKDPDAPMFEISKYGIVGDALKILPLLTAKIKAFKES

## C/C=C/C(=O)SCCNC(=O)CCNC(=O)[C@H](O)C(C)(C)COP(=O)(O)OP(=O)(O)OC[C@H]1O[C@@H](n2cnc3c(N)ncnc32)[C@H](O)[C@@H]1OP(=O)(O)O [crotonyl-CoA]
[1]
  Kd: 95 ± 6 µM

## NC(=O)C1=CN([C@@H]2O[C@H](COP(=O)(O)OP(=O)(O)OC[C@H]3O[C@@H](n4cnc5c(N)ncnc54)[C@H](O)[C@@H]3O)[C@@H](O)[C@H]2O)C=CC1 [NADH]
[2]
  anaerobic stopped-flow, beta-FAD reduction and charge-transfer complex at 650 nm: mixing EtfAB with a stoichiometric amount NADH resulted in a rapid reduction of β-FAD
